Results: patent US20060052307A1, “Bone growth factor” (priority 2002, published 2006)
“And” between values parts separate entries of the source, which are not always exact repeats. Equal entries are not always repeated. Bridges are numbered along the chain shown (N, C = ends). Roman numbers before positions name the chains, in order. The star is where a group is joined. Cam = NC(=O)C*

Key:
[1] = tested on: Sprague-Dawley rats; experiment: Bone mineral apposition rate after a single subcutaneous peptide injection, double tetracycline labelling, distal metaphysis of the right femur; assay type: in vivo, rat; design: Bone mineral apposition rate, group mean (Table 2): unit not given here; details: male rats; for BONE MINERAL APPOSITION, individual rats (Table 6) / Effect on bone mineral apposition / BONE MINERAL APPOSITION, MEAN (Table 6): Example 3, 300 nmoles/kg S.C.; for BONE MINERAL APPOSITION, MEAN (Table 6): control 1.62; for Effect on bone mineral apposition rate versus control / Bone mineral apposition rate, individual rats (Table 2) / Bone mineral apposition rate, group mean (Table 2): Example 1; for Bone mineral apposition rate, individual rats (Table 2) / Bone mineral apposition rate, group mean (Table 2): 300 nmoles/kg s.c. single dose; for Bone mineral apposition rate, group mean (Table 2): N=4, control 1.48
Experimental: Test peptides were administered by subcutaneous injection to the right gluteal region of the rats after being dissolved in a carrier buffer comprising PBS containing 0.1% heat inactivated BSA at pH 7.4. The dose was 300 nmoles/kg bodyweight in an injection volume of 400 μl.
Male Sprague-Dawley rats from Charles River Laboratory were used. The weight of the animals was approximately 350 g. They were housed in pairs in standard shoebox cages. Purina rat chow and tap water were provided ad libitum. The light/dark cycle was 12 hours, the temperature 22° C. and the humidity 50%. The animals were acclimatized for one week before initiating dosing.
Bone mineral apposition rate as measured for the distal metaphysis of the right femur was the parameter for the assessment of activity. Two doses of tetracycline hydrochloride (Sigma), 24 mg/kg body weight were administered I.M. in an injection volume of 800 μl to the left gluteus maximus muscle. The first dose was given immediately following the administration of the peptide, and the second dose 48 hours later. 24 hours after the second dose of tetracycline, the animals were sacrificed by carbon dioxide narcosis. The right femur was dissected clear of muscles and a 0.5 cm cross section of the bone 1 mm below the upper epiphyseal cartilage was taken and processed undecalcified for histological preparation of […]. Bone mineral apposition rate was measured in 15 randomly selected bone formation sites with two tetracycline labels in the trabecular bone. The arithmetic mean of these 15 sites was taken as the mean bone mineral apposition for the respective animals.
The dose of peptide was dissolved in 400 μl of buffer comprising of PBS with 0.1% of heat inactivated BSA and the method for the determination of bone mineral apposition rate was as described before.
Experimental design: Animals were grouped in four. All groups received a single dose of SEQ ID NO:2 (300 nmoles/kg) subcutaneously injected to the right gluteal region at Day 0 at approximately the same time within 15 minutes. Two doses tetracycline labeling at intervals of 48 hours was used to measure bone mineral apposition rate. The control group received buffer injection only.

[2] = Stability of peptides in solution, intact peptide remaining by HPLC peak height; assay type: physicochemical; details: pH 7.4
Experimental: Solvents for test peptides: Milli-Q water filtered through […] filter; resistance—18.2 Mega Ohms
Phosphate buffered saline: pH […] from Gibco (Cat. #100113-023)
20. mM sodium acetate buffer: pH 4.5 prepared with Milli-Q water and filtered through […] filter.
Peptides: The test peptides included those of SEQ ID NOs: 2, 3, 4 & 7.
Peptide preparation: Test peptides were dissolved in either PBS or sodium acetate buffer at a concentration of 0.2 mg per ml. The purity of the test peptides was greater than 95%.
Method for testing stability: Stability of the peptides was examined at pH7.4 and at room temperature, 4° C. and 37° C. The amount of intact peptide remaining over time was compared with the initial intact amount. The quantification of the amount of peptide was based on peak height in an HPLC profile.

[3] = tested on: Sprague-Dawley rats; experiment: Bone mineral apposition rate after a single subcutaneous peptide injection, double tetracycline labelling, distal metaphysis of the right femur; assay type: in vivo, rat; design: unit not given here; details: Example 2, 300 nmoles/kg s.c., N=3, control 1.18

Substance	BONE MINERAL APPOSITION, individual rats (Table 6) [1]	Effect on bone mineral apposition [1]	BONE MINERAL APPOSITION, MEAN (Table 6) [1] [µm/d]	Effect on bone mineral apposition rate versus control ([1]; 300 nmoles/kg s.c.)	Bone mineral apposition rate, individual rats (Table 2) [1]	Bone mineral apposition rate, group mean (Table 2) [1]	other results
Ac-R T N E H T A D C K —NH2 (Ac-RTNEHTADCK-NH2) [SEQ ID NO: 8, monomer]	2.27 µm/d and 1.78 µm/d and 2.15 µm/d and 2.01 µm/d	significantly stimulated	2.05	–	–	–	–
Ac-R T Q E H T A E C K —NH2 (Ac-RTQEHTAECK-NH2) [SEQ ID NO: 7, monomer, prior art peptide]	1.91 µm/d and 1.73 µm/d (2×) and 2.06 µm/d	significantly stimulated	1.86	significantly higher than the control group	2.41 µm/d and 2.54 µm/d and 2.25 µm/d and 2.24 µm/d	2.36	Degradation in solution ([2]; 4° C. and room temperature, 6 months): totally degraded; Degradation in solution ([2]; 4° C. and room temperature, over three months): substantial degradation; Degradation in solution ([2]; 37° C., over 3 weeks): substantial degradation
K-T-Q-E-F-T-A-E-M-K [SEQ ID NO: 1]	–	–	–	–	–	–	Bone Mineral Apposition Rate, Mean rate (Table 4) [3]: 1.61
SEQ ID NO: 5: peptide of SEQ ID NO:7 with a carboxyamidomethyl residue modifying cysteine at the 9-position of the decamer (Ac-RTQEHTAEC(Cam)K-NH2)	–	–	–	–	–	–	Bone mineral apposition rate compared with the prior art peptide of SEQ ID NO: 7 (FIG. 5) ([1]; Example 4, 300 nmoles/kg s.c.): significantly greater
SEQ ID NO: 7, dimer: dimerized form of the peptide having SEQ ID NO:7, disulfide bonding between the cysteine residues (chain 1 Ac-RTQEHTAECK-NH2; chain 2 Ac-RTQEHTAECK-NH2; disulfide I:9-II:9; also: disulfide-linked dimer)	1.29 µm/d and 1.51 µm/d (2×)	significantly inhibit	1.43	inhibitory effect	1.28 µm/d and 1.41 µm/d and 1.5 µm/d and 1.38 µm/d	1.39	–
SEQ ID NO: 8, dimer: dimer form of the peptide with SEQ ID NO: 8 (chain 1 Ac-RTNEHTADCK-NH2; chain 2 Ac-RTNEHTADCK-NH2; not fully specified (bridges); cysteine pairing not given here; also: dimer, linkage not given here)	1.39 µm/d and 1.43 µm/d and 1.42 µm/d and 1.36 µm/d	significantly inhibit	1.4	–	–	–	–
